Like-named read-outs stand apart in the source and are kept apart here.
Columns and labels:
[1] = tested on: MCF7 human breast cancer cell line; assay: MTT assay of MCF7 cells; assay type: cell-based; conditions: Homo sapiens, media containing 1% fetal bovine serum
Method: (§1) MDA-MB-231 and MCF7 cells were plated at a density of 8×10^3 cells/well and 10^4 cells/well in 96-well culture plates, respectively. The compounds were fed in serum free media containing 5% and 1% fetal bovine serum for MDA-MB-231 and MCF7 cells, respectively.

[2] = tested on: +SA mammary epithelial cells; assay: MTT assay of +SA cells (antiproliferative activity); assay type: cell-based, mouse; conditions: for IC50: 24 hours treatment, read-out: IC50 antiproliferative activity against +SA mammary epithelial cells; for antiproliferative activity against +SA mammary tumor cells (in words): described from FIG. 32 / text
Method: The antiproliferative activities of Compounds 3-44 against the highly metastatic malignant +SA mammary epithelial cells were evaluated by MTT assay. Materials for the assay were purchased from Sigma Chemical Company (St. Louis, Mo.) unless otherwise stated. The highly malignant +SA mouse mammary epithelial cell line was serially passaged at subconfluent cell density. The +SA mammary tumor cell line was derived from an adenocarcinoma that developed spontaneously in a BALB/c female mouse. +SA cells were maintained in serum-free defined medium consisting of Dulbecco's modified Eagle's medium (DMEM)/F12 containing 5 mg/mL bovine serum albumin (BSA), 10 […], 100 U/mL soybean trypsin inhibitor, 100 U/mL penicillin G, 0.1 mg/mL streptomycin, […], and 10 ng/mL epidermal growth factor. For subculturing, cells were rinsed twice with sterile Ca2+ and Mg2+-free phosphate buffered saline (PBS) and incubated in 0.05% trypsin containing 0.025% EDTA in PBS for 5 min at 37° C. The released cells were centrifuged, resuspended in fresh media and counted using hemocytometer. A stock solution of the compounds was prepared in DMSO. Once dissolved, this solution was added to a small volume of sterile 10% BSA in water and incubated overnight at 37° C. This solution conjugated to BSA was used to prepare various concentrations (0-40 μM) of tocotrienol analogs. DMSO was added to all treatment media such that the final DMSO concentration was the same in all treatment groups within a given experiment and was always less than 0.1%. For cytotoxic studies, cells were seeded at a density of 5×10^4 cells/well (+SA cells) or 1×10^5 cells/well (CL-S1 cells) (6 wells/group) in 24-well culture plates and allowed to grow in their respective control media. After 3 days incubation period (approximately 70% confluency), cells were divided equally into various treatment groups and exposed to their respective treatments for a 24 hours incubation period. Following the 24 hours treatment period, cell viability was measured using the MTT assay.
+SA Mammary epithelial cell viable number was determined by a 3-(4,5-dimethylthiazol-2yl)-2,5-diphenyl tetrazolium bromide (MTT) colorimetric assay. On the assay day, treatment medium was replaced with fresh control medium containing 0.42 mg/mL MTT, and the cells in 24-well plates were incubated at 37° C. for 4 hours. Afterward, the medium was removed, and the MTT crystals were dissolved in isopropyl alcohol (1 mL/well). The optical density of each sample was read at 570 nm on a microplate reader (SpectraCount, Packard BioScience Company), against a blank prepared from cell-free cultures. The number of cells/well was calculated against a standard curve prepared by plating various concentrations of cells, as determined by hemocytometer, at the start of each experiment.
Differences among the various treatment groups in +SA cell cytotoxic studies were determined by analysis of variance (ANOVA) followed by Dunnett's t-test. The difference of P<0.05 was considered to be statistically significant as compared with vehicle-treated controls unless separately described. Linear regression analysis of treatment effects on viable cell number in growth and cytotoxicity studies was used to determine the 50% growth inhibition concentration (IC50) for individual treatments.

[3] = tested on: MDA-MB-231 human breast cancer cells; assay: Wound-healing assay (cell migration); assay type: cell-based; conditions: for inhibition at 5 µM: MDA-MB-231, 24 h, wound-healing assay; for IC50: MDA-MB-231, wound-healing assay, dose response, read-out: IC50 antimigratory activity
Method: The highly metastatic human breast cancer MDA-MB-231 cells were cultured in RPMI 1640 medium containing 10 mM HEPES, 4 mM L-glutamine, 10% fetal bovine serum, penicillin (100 IU/mL), and streptomycin (50 μg/mL), and grown in a 5% CO2 atmosphere at 37° C. Cells were plated onto sterile 24-well and allowed to recover for a confluent cell monolayer formed in each well (>95% confluence). Wounds were then inflicted to each cell monolayer using a sterile 200 μL pipette tip. Media were removed, cells monolayers were washed twice with PBS, and then fresh media containing test compounds were added to each well. Test compounds were prepared in DMSO at 5 μM concentration and added to the plates, each in triplicate using DMSO as negative control. The incubation was carried out for 24 h under serum-starved conditions, after which media was removed and cells were fixed and stained using a staining composition sold under the trade name Diff Quick (Dade Behring Diagnostics, Aguada, Puerto Rico). The stain comprised a fixative reagent containing 1.8 mg/L triarylmethane dye in methyl alcohol; a first solution of 1 g/L xanthene dye, buffer, and sodium azide (0.01%) as preservative; and a second solution of 1.25 g/L Thiazine dye mixture (0.625 g/L azure A and 0.625 g/L methylene blue) and buffer. The number of cells migrated on the scratched wound were counted under the microscope in three or more randomly selected fields (magnification: 400×). Final results are expressed as mean±SEM per 400× field. The wound-healing assay is a simple method for the study of directional cell migration in vitro.
Compounds were tested for their ability to inhibit the migration of the highly metastatic MDA-MB-231 human breast cancer cells in the wound-healing assay using the procedure described above. Compounds 6, 10, 12, 13, 24, 26, 27, and 29 inhibited the migration of more than 50% of the human breast cancer cells MDA-MB-231 in the wound healing assay at 5 μM dose. […] The antimigratory activity of tocotrienols may be enhanced by a terminal aromatic functionality. The presence of electron withdrawing group, such as nitro in Compound 29, may eliminate the antiproliferative activity yet retain the antimigratory activity of the compound. While the electron donating groups, such as OH and OMe found in Compounds 23 and 26, respectively, retained both antiproliferative and antimigratory activities.
Utilizing similar procedures follow-up testing was conducted on a variety of compounds using a range of compound concentrations. The results of follow-up antimigratory testing are shown in FIG. 35B and Table III below with IC50 values calculated using statistical software.

[4] = tested on: MDA-MB-231 human breast cancer cell line; assay: MTT assay of MDA-MB-231 cells; assay type: cell-based; conditions: Homo sapiens, media containing 5% fetal bovine serum
Method: as §1

[5] = tested on: MCF 10A non-tumorigenic mammary epithelial cells; assay: MTT assay of MCF10A cells; assay type: cell-based, human; conditions: for IC50: Homo sapiens; for Selectivity index: IC50 for MCF 10A divided by IC50 for +SA cell line
Method: MCF 10A (ATCC cat # CRL-10317) normal human non-tumorigenic mammary epithelial cells were maintained in serum-free defined medium consisting of Dulbecco's modified Eagle's medium (DMEM)/F12 containing 5% horse serum, 1% penicillin/streptomycin, 0.5 μg/mL hydrocortisone, 100 ng/mL cholera toxin, 10 μg/mL insulin, and 20 ng/mL epidermal growth factor (rhEGF). For subculturing, cells were rinsed twice with sterile Ca2+ and Mg2+-free phosphate buffered saline (PBS) and incubated in 0.25% trypsin containing 0.025% EDTA in PBS for 5 min at 37° C. The released cells were centrifuged, re-suspended in fresh media and counted using a hemocytometer. For testing, MCF 10A cells were plated at a density of 10×10^4 cells/well. A stock solution of the compounds was prepared in DMSO. DMSO was added to all treatment media such that the final DMSO concentration was the same in all treatment groups within a given experiment and was always less than 0.1%. The compounds were fed in serum free media. MCF10A mammary epithelial cell's viable number was determined by MTT colorimetric assay. […] IC50 values were calculated by non-linear regression using statistical software. The selectivity index indicated in the table represents the IC50 value for the MCF 10A cell line divided by the IC50 value for the +SA cell line.

[6] = MCF-10A, MCF10A cells, Table II, non-linear regression, read-out: MCF10A (IC50)
[7] = MCF 10A non-tumorigenic cells, Table I, read-out: IC50 MCF 10A

`CC(C)=CCC/C(C)=C/CC/C(C)=C/CC[C@]1(C)CCc2c3c(c(C)c(C)c2O1)OCN(Cc1ccccc1)C3` [Compound 6, (R)-2-benzyl-5,6,8-trimethyl-8-((3E,7E)-4,8,12-trimethyltrideca-3,7,11-trienyl)-1,2,3,8,9,10-hexahydrochromeno[5,6-e][1,3]oxazine] was tested, and the IC50 [1] was greater than 20 µM, the IC50 ([2]; Mus musculus, +SA cell) was 1.2 to 2.2 µM and the “antiproliferative activity against +SA mammary tumor cells (in words)” value (“antiproliferative activity” for short) [2] was “inactive”. The inhibition at 5 µM ([3]; Homo sapiens) was greater than 50% and the IC50 [4] was 27.3 µM.

`CC(C)=CCC/C(C)=C/CC/C(C)=C/CC[C@]1(C)CCc2cc(O)cc(C)c2O1` [Compound 2, δ-tocotrienol, reference compound] gave an IC50 [2] of 3 µM and an IC50 [3] greater than 40 µM.

For `CC(C)=CCC/C(C)=C/CC/C(C)=C/CC[C@]1(C)CCc2c3c(c(C)c(C)c2O1)OCN(CC1CCNCC1)C3` [Compound 16, (R)-5,6,8-trimethyl-2-(piperidin-4-ylmethyl)-8-((3E,7E)-4,8,12-trimethyltrideca-3,7,11-trienyl)-1,2,3,8,9,10-hexahydrochromeno[5,6-e][1,3]oxazine], the IC50 [1] was greater than 20 µM, the “antiproliferative activity” value [2] was “strong activity” and the IC50 [4] was 0.8 µM.

Work on `COc1ccc(CCN2COc3c(C)c(C)c4c(c3C2)CC[C@@](C)(CC/C=C(\C)CC/C=C(\C)CCC=C(C)C)O4)cc1OC` [Compound 23, (R)-2-(3,4-dimethoxyphenethyl)-5,6,8-trimethyl-8-((3E,7E)-4,8,12-trimethyltrideca-3,7,11-trienyl)-1,2,3,8,9,10-hexahydrochromeno[5,6-e][1,3]oxazine] yielded an IC50 [1] greater than 20 µM, an IC50 [5, 6] of 0.7 µM and an IC50 [5, 7] of 0.7 µM. The Selectivity index [5] was 0.39, the “antiproliferative activity” value [2] was “very high activity” and the IC50 [4] was greater than 50 µM.

For `CC(C)=CCC/C(C)=C/CC/C(C)=C/CC[C@]1(C)CCc2c3c(cc(C)c2O1)OCN(Cc1cccc([N+](=O)[O-])c1)C3` [Compound 29, (R)-6,8-dimethyl-2-(3-nitrobenzyl)-8-((3E,7E)-4,8,12-trimethyltrideca-3,7,11-trienyl)-1,2,3,8,9,10-hexahydrochromeno[5,6-e][1,3]oxazine], the “antiproliferative activity” value [2] was “inactive” and the inhibition at 5 µM ([3]; Homo sapiens) was greater than 50%.

Compound `CC(C)=CCC/C(C)=C/CC/C(C)=C/CC[C@]1(C)CCc2c3c(c(C)c(C)c2O1)OCN(CCc1ccc(O)cc1)C3` [Compound 26, 4-(2-((R)-5,6,8-trimethyl-8-((3E,7E)-4,8,12-trimethyltrideca-3,7,11-trienyl)-9,10-dihydrochromeno[5,6-e][1,3]oxazin-2(1H,3H,8H)-yl)ethyl)phenol] has an IC50 [1] of 10.6 µM, an IC50 [5, 6] of 8.5 µM and an IC50 [5, 7] of 8.5 µM. The Selectivity index [5] was 5.67, the “antiproliferative activity” value [2] was “very high activities” and the inhibition at 5 µM ([3]; Homo sapiens) was greater than 50%. For the same compound, the IC50 ([3]; Homo sapiens) was 4.5 µM and the IC50 [4] was greater than 5 µM.

— patent publication US9115145B2, “Tocotrienol derivatives and associated methods” (FIRST TECH INTERNATIONAL LIMITED, priority 2011, dated 2015)
